Tests used:
[1] = Hair tensile strength test (digital force gauge); settings: for % Increase in tensile strength relative to control: control 100% DI water
Procedure: (§1) Hair tensile strength can be measured according to the following general method. “Test Compound” can be any compound described herein. • 1. Collect about 3 hair strands from tress; • 2. Clamp both ends of a single hair strand and pull taut; • 3. Line up ruler with hair strand and cut a 2.75 cm section; • 4. Repeat steps 2-3 until 30 segments are produced; • 5. Create a specific w/w % solution of deionized water and Test Compound (e.g., Compound (1)) in 50 ml beaker; • 6. Saturate the hair for a specific amount of time in the solution, then remove and dry for 30 minutes; • 7. Using a 4 decimal precision balance, weigh all hairs at once and calculate the average; • 8. Insert hair into the digital force gauge; • 9. Separate the two clamps until the hair has broken into two separate pieces; and • 10. Note the maximum force required to break the hair as well as the distance the digital force gauge has moved.
(§2) Control experiments can also be conducted according to the procedure described above, for example by omitting Test Compound from the solution or replacing Test Compound with compound for comparison (e.g., glycolic acid).

[2] = Hair elongation percentage test; settings: for % Increase in elongation percentage relative to control: control 100% DI water
Procedure: as §1, §2

[3] = Elongation of bleached hair at break stress (Formulation 1); settings: 5 w/w % solution in DI water
Procedure: A combination formulation (Formulation 1) comprising Compound (1) and glycolic acid as an aqueous mixture was tested. Formulation 1 comprises a 1:1 ratio (by weight) of Compound (1) to glycolic acid. To prepare Formulation 1, a mixture containing 50 w/w % Compound (1) and 50 w/w % glycolic acid (crystalline) was prepared (Mixture A). Mixture A was diluted with deionized (DI) water (aqua) until the solution was 5 w/wt % Mixture A.
Formulation 1 was independently analyzed to determine whether elongation of bleached hair at break stress increased compared to both control and glycolic acid solutions. The glycolic acid solution was a 5 w/w % glycolic acid solution in DI water. The control was DI water alone.

[4] = 1 w/w % solution in deionized water
[5] = 2.5 w/w % solution in deionized water

SMILES | Tensile strength (Gf/Denier) [1, 4] | % Increase in tensile strength relative to control ([1]; 1 w/w % solution) | Tensile strength (Gf/Denier) [1, 5] | Tensile strength of hair compared to glycolic acid (in words) ([1]; 2.5 w/w % solution vs 2.5 w/w % glycolic acid, FIG. 2) | % Increase in tensile strength relative to control ([1]; 2.5 w/w % solution) | Tensile strength of hair relative to control (in words) ([1]; control hair treated 100% DI water, FIG. 1) | Elongation % [2, 4] | % Increase in elongation percentage relative to control ([2]; 1 w/w % solution) | Elongation % [2, 5] | Elongation percentage of hair compared to glycolic acid (in words) ([2]; 2.5 w/w % solution vs 2.5 w/w % glycolic acid, FIG. 4) | % Increase in elongation percentage relative to control ([2]; 2.5 w/w % solution) | Elongation percentage of hair relative to control (in words) ([2]; control hair treated 100% DI water, FIG. 3) | Mean Elongation % [3] | Difference from Control (%) ([3]; control DI water)
N[C@@H](CO)C(=O)OCC(=O)O [Compound (1)] | 1.210 gf/denier | 16.9% | 1.490 gf/denier | significantly increases tensile strength of hair as compared to glycolic acid | 43.9% | significantly increases tensile strength of hair, relative to control | 25.4% | 0.67% | 29.9% | significantly increases elongation percentage of hair | 18.51% | increases elongation percentage of hair |  | 
O=C(O)CO [Glycolic Acid, glycolic acid, reference compound] |  |  | 1.219 gf/denier |  | 17.8% |  |  |  | 26.71% |  | 5.87% |  | 55.3% | 7.38%

Source: patent US20240252410A1, “COMPOUNDS FOR USE IN KERATIN TREATMENT” (CrossChem Limited, priority 2023, published 2024)
